Here are results for 18 compounds from paper PMC9102017, “A Structure—Activity Relationship Study of the Inhibition of α-Amylase by Benzoic Acid and Its Derivatives” (Nutrients, 2022).

The target of test [1] is T1, Porcine pancreatic α-amylase (Sus scrofa, UniProt P00690).
T1 construct: purchased Sigma-Aldrich Chemical Co. (St. Louis, MO, USA) A3176
T1 sequence (P00690 16-511): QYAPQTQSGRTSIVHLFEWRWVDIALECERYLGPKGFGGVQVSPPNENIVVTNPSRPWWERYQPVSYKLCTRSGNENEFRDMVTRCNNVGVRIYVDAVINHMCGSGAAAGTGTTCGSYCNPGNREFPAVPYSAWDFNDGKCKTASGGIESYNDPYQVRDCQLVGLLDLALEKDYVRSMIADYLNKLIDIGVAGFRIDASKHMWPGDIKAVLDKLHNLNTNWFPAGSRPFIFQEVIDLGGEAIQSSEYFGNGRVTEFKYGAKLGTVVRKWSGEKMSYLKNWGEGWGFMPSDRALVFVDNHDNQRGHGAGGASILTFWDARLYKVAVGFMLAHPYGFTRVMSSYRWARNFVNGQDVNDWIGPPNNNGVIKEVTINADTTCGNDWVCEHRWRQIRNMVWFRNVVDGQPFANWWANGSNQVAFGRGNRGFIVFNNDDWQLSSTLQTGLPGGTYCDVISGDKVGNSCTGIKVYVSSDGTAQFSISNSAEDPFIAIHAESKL
Briefly: In vitro α-amylase inhibition assay (starch/DNS, absorbance at 540 nm). As to conditions: for IC50: 0.2 M potassium phosphate buffer pH 6.8, 37 °C, mean ± SD, triplicate, read-out: IC50 Values against α-Amylase (converted); for inhibited α-amylase more than the analogue without the 2-hydroxyl group: compared with 4-hydroxybenzoic acid (Group 1) or 3,4-dihydroxybenzoic acid (Group 2), Figure 1. The class given is biochemical. The procedure:
The α-amylase inhibition assay was adapted from Phan et al. with slight modifications. In order to simulate the small intestine conditions, a buffer pH of 6.8 and an incubation temperature of 37 °C were used. Porcine pancreatic α-amylase was dissolved in 0.2 M potassium phosphate buffer (pH 6.8). Phenolic acid solutions were prepared in 80% DMSO. […] An aliquot of 50 μL of phenolic acid solution (10, 20, 30, 40 and 50 mM) was mixed with 400 μL of 0.2 M potassium phosphate buffer (pH 6.8 with 7 mM NaCl) in a 2 mL tube. After adding 100 μL of the enzyme solution (0.5 unit/mL), the tube was incubated at 37 °C for 5 min. Subsequently, 450 μL of the cooked soluble starch solution (5 mg/mL) was added to initiate the reaction at 37 °C for 20 min, followed by the addition of 500 μL of DNS reagent, and then the tubes were boiled for 15 min at 100 °C to inactivate the enzyme. A total of 200 μL of the reaction solution was transferred to a 96-well plate and the absorbance was measured at 540 nm using a microplate reader (Tecan Infinite 200 PRO; Tecan, Männedorf, Zürich, Switzerland). All of the samples were prepared and measured in triplicate. The inhibition rate was calculated using the following formula: (1) Inhibition(%)={1−A[sample]−A[blank]/A[control+]−A[control−]}×100 where:
A [control+] is absorbance at 100% enzyme activity (buffer with starch and enzyme);
A [control−] is starch background absorbance (buffer and starch without enzyme);
A [sample] is test sample absorbance (buffer with enzyme, starch and inhibitor);
A [blank] is inhibitor and starch background absorbance (a test sample without enzyme).
The inhibition rates were plotted against the logarithmic values of six concentrations of the test inhibitor and a non-linear regression analysis was employed to generate a dose-response curve and calculate the IC50 values (mM and mg/mL).

Test [2] deals with α-amylase. The note with it: cited from earlier work.
Where [3] appears, read: lower buffer concentration (0.02 M) than in this study, read-out: IC50 previously reported.
[4] abbreviates: recent studies, read-out: IC50 for α-amylase.

“And” between values parts separate entries of the source, which are not always exact repeats. Identical values can stand only once. Like-named read-outs stand apart in the source and are kept apart here.

By IC50 is commonly meant the concentration that inhibits the measured activity by half. Turning to `O=C(O)c1ccc(O)c(O)c1` [Compound 4, 3,4-Dihydroxybenzoic acid], the IC50 in test [1] was 25.4 mM; in test [2] (setting [3]) it was 11.5 ± 0.45 mM.
On to `COc1cc(C(=O)O)cc(O)c1O` [Compound 16, 3,4-Dihydroxy-5-methoxybenzoic acid], for which the IC50 in test [1] is 37.8 mM.
Consider `O=C(O)c1ccc(O)c(O)c1O` [Compound 5, 2,3,4-Trihydroxybenzoic acid], for which, in test [1], the IC50 was 17.3 mM and the “inhibited α-amylase more than the analogue without the 2-hydroxyl group” value is recorded as 46.56%. The IC50 in test [2] (setting [4]) was 33.3 mM.
`O=C(O)c1cc(O)c(O)c(O)c1` [Compound 7, 3,4,5-Trihydroxybenzoic acid]: the IC50 in test [1] was 26.1 mM; in test [2] (setting [3]), 7.46 ± 0.24 mM; in test [2] (setting [4]) it was 1.25 mM.
Consider `O=C(O)c1ccccc1` [Compound 1, Benzoic acid], for which the IC50 in test [1] is 45.2 mM.
`O=C(O)c1ccc(O)cc1` [Compound 2, 4-Hydroxybenzoic acid]: the IC50 in test [1] is 25.7 mM.
Turning to `COc1cc(O)ccc1C(=O)O` [Compound 14, 4-Hydroxy-2-methoxybenzoic acid], in test [1], the IC50 is 48.9 mM.
As to `Cc1cc(O)cc(O)c1C(=O)O` [Compound 12, 2,4-Dihydroxy-6-methylbenzoic acid], in test [1], the IC50 was 18.1 mM.
With `COc1cc(C(=O)O)ccc1O` [Compound 15, 4-Hydroxy-3-methoxybenzoic acid], the IC50 is 24.4 mM in test [1] and 27.9 mM in test [2] (setting [4]).
For the compound `O=C(O)c1cc(O)ccc1O` [2,5-dihydroxybenzoic acid, reference compound], the IC50 in test [2] (setting [4]) was 0.298 mM.
On to `Cc1cc(C(=O)O)ccc1O` [Compound 10, 4-Hydroxy-3-methylbenzoic acid], for which the IC50 in test [1] is 28.6 mM.
`Cc1ccc(C(=O)O)cc1` [Compound 8, 4-Methylbenzoic acid]: the IC50 in test [1] was 52.3 mM.
With `O=C(O)c1c(O)cc(O)cc1O` [Compound 6, 2,4,6-Trihydroxybenzoic acid], in test [1], the IC50 was 20.6 mM.
As to `Cc1cc(C(=O)O)cc(C)c1O` [Compound 11, 4-Hydroxy-3,5-dimethylbenzoic acid], the IC50 in test [1] was 26 mM.
On to `O=C(O)c1ccc(O)cc1O` [Compound 3, 2,4-Dihydroxybenzoic acid], for which, in test [1], the half-maximal inhibitory concentration (IC50) was 19.3 mM and the “inhibited α-amylase more than the analogue without the 2-hydroxyl group” value is on record as 33.31%.
As for `COc1cc(C(=O)O)cc(OC)c1O` [Compound 17, 4-Hydroxy-3,5-dimethoxybenzoic acid], the IC50 in test [1] is 32.2 mM; in test [2] (setting [4]), 44.8 mM.
As for `COc1ccc(C(=O)O)cc1` [Compound 13, 4-Methoxybenzoic acid], in test [1], the IC50 was 44.2 mM and 44.1 mM.
The same measure, in the same setting: to `Cc1cc(O)ccc1C(=O)O` [Compound 9, 4-Hydroxy-2-methylbenzoic acid] belongs 23.4 mM.
